Assay results from patent US4963570A, “1-(acetylaminophenyl)-2-aminopropanone derivatives and pharmaceutical compositions thereof” (Laboratoire L. Lafon, priority 1983, dated 1990).
Structures can show the parent of a compound that is named as a salt.

Experiments:
[1] = tested on: peripheral α-adrenergic stimulation; assay: signs of peripheral adrenergic stimulation; format: in vivo, mouse; rat; conditions: i.p.; dose not stated
Description: (§1) Groups of three animals are observed before and then 0.25 hour, 0.50 hour, 1 hour, 2 hours, 3 hours and 24 hours after the administration of CRL 41 224.

rats [2] = assay: overall behavior and reactivities in rats; format: in vivo, rat; conditions: i.p., dose not stated
Description: as §1

mice [3] = assay: interaction with barbital; format: in vivo, mouse; conditions: i.p.; dose not stated
Description: Half an hour after the administration of CRL 41 224, groups of 10 mice receive an intraperitoneal injection of barbital (220 mg/kg).

mice [4] = assay: interaction with apomorphine in mice; format: in vivo, mouse; conditions: i.p.; dose not stated
Description: Groups of 6 mice receive CRL 41 224 0.5 hour before the subcutaneous injection of 1 or 16 mg/kg of apomorphine.

rats [5] = assay: interaction with apomorphine in rats; format: in vivo, rat; conditions: i.p., dose not stated
Description: CRL 41 224 is administered to groups of 6 rats 0.5 hour before the subcutaneous injection of 0.5 mg/kg of apomorphine.

rats [6] = assay: interaction with amphetamine; format: in vivo, rat; conditions: rats, i.p.; dose not stated
Description: Amphetamine (2 mg/kg) is injected intraperitoneally into groups of 6 rats 30 minutes after the administration of CRL 41 224.

mice [7] = assay: action on the behavioral despair; format: in vivo, mouse; conditions: i.p., dose not stated
Excerpt: Half an hour after they have received CRL 41 224, groups of 6 mice are placed in a beaker filled with water to a height of 6 cm. The total period of immobility between the 2nd and 6th minutes following immersion is noted.

mice [8] = assay: action on the spontaneous motility (actimeter); format: in vivo, mouse; conditions: mice, i.p.; dose not stated
Description: 0.5 hour after they have received CRL 41 224, the mice (6 per dose, 12 control animals) are placed in an actimeter, where their motility is recorded for 30 minutes.

male mice [9] = assay: acute toxicity, intraperitoneal (lethal doses); format: in vivo, mouse; conditions: i.p.
Description: (§2) By intraperitoneal administration to male mice, the LD-30 (lethal dose for 30% of the animals tested) is of the order of 128 mg/kg and the LD-50 is of the order of about 200 mg/kg.

[10] = acute toxicity, intraperitoneal (lethal doses); format: in vivo, mouse; conditions: mouse, in vivo, ip; male mice
Description: as §2

mice [11] = assay: asphyxiant anoxia (gallamine triiodoethylate); format: in vivo, mouse; conditions: i.p.; dose not stated
Description: Groups of 10 mice receive CRL 41 224 half an hour before the intraperitoneal administration of 32 mg/kg of gallamine triiodoethylate (reference curarizing agent).

mice [12] = assay: motility reduced by hypoxic aggression; format: in vivo, mouse; conditions: i.p., dose not stated
Description: Half an hour after they have received CRL 41 224, the mice (10 per dose, 20 control animals) are subjected to acute hypobaric anoxia [pressure reduction of 600 mm Hg (i.e. about 8×10^4 Pa) in 90 seconds; release of vacuum in 45 seconds] and are then placed in an actimeter, where their motility is recorded for 10 minutes.

mice [13] = assay: interaction with oxotremorine; format: in vivo, mouse; conditions: i.p.; dose not stated
Description: CRL 41 224 is administered to groups of 6 mice 0.5 hour before the intraperitoneal injection of 0.5 mg/kg of oxotremorine.

CNS = assay: overall neuropsychopharmacological (CNS) profile; format: in vivo, mouse; rat; conditions: i.p., mice and rats; dose not stated
Description: The neuropsychopharmacological study of CRL 41 219 was carried out as indicated above for CRL 41 224.
The neuropsychopharmacological study of CRL 41 220 was carried out in accordance with the procedures given above for CRL 41 224.

mice [14] = assay: overall behavior and reactivities in mice; format: in vivo, mouse; conditions: mice, i.p.; dose not stated
Description: as §1

mice [15] = assay: interaction with reserpine; format: in vivo, mouse; conditions: i.p.; dose not stated
Description: Four hours after the intraperitoneal injection of 2.5 mg/kg of reserpine, groups of 6 mice receive CRL 41 224.

mice [16] = assay: motility reduced by habituation to the enclosure; format: in vivo, mouse; conditions: i.p., dose not stated
Description: After they have stayed in the actimeters for 18 hours, the mice (6 per dose, 12 control animals) receive CRL 41 224. They are immediately returned to their respective enclosures and, half an hour later, their motility is recorded for 30 minutes.

mice [17] = assay: four plate test, traction and electric shock; format: in vivo, mouse; conditions: i.p., dose not stated
Description: The test is performed on groups of 10 mice 30 minutes after the administration of CRL 41 224.

male mice [18] = assay: interaction with proadifen: motility; format: in vivo, mouse; conditions: i.p., administered alone
Description: (§3) Two series of experiments were carried out. In the first one, male mice (12 per dose, 12 control animals) were administered per I.P. route (i) with proadifen (75 mg/kg) at T-3 h, then (ii) with CRL 41 152 at T-0.5 h. At T=0 the mice were placed in actimeters, where their motility was recoded for 0.5 h. In the second one male mice (12 per dose, 12 control animals) were administered with proadifen and CRL 41 152 as indicated hereinabove, then subcutaneously with apomorphine (16 mg/kg) at T=0 in order to appreciate the potential variation of the hypothermia induced by apomorphine.
(§4) In these two series CRL 41 152, in solution in distilled water, was administered per I.P. route to male mice in a volume of 20 ml/kg.

male mice [19] = assay: interaction with proadifen: hypothermia induced by apomorphine; format: in vivo, mouse
Description: as §3, §4

Compound: CC(=O)Nc1ccc(C(=O)C(C)N2CCCC2)cc1Cl (stereo not shown) [CRL 41 219, 1-(4-acetylamino-3-chlorophenyl)-2-pyrrolidinopropanone hydrochloride]
- mydriasis [1]: mydriasis
- peripheral adrenergic stimulation, overall [1]: effects reflecting peripheral α-adrenergic stimulation
- excitation in rats (rats [2]): excitation (with hyperractivity)
- stereotype movements in rats (rats [2]): presence of stereotype movements
- sleep induced by barbital (mice [3]): antagonism of the sleep induced by barbital
- hypothermia induced by apomorphine (mice [4]): antagonism of the hypothermia induced by apomorphine
- stereotypies induced by apomorphine (rats [5]): potentiation of the stereotypies induced by apomorphine
- stereotypies induced by amphetamine (rats [6]): potentiation of the stereotypies induced by apomorphine and amphetamine
- period of immobility or "despair" (mice [7]): reduction in the immobility
- spontaneous motility / motor activity (mice [8]): hyperactivity, increase in the spontaneous motor activity
- LD-30 (male mice [9]): ~128 mg/kg
- LD50 [10]: ~200 mg/kg
- time taken for convulsions and death to occur following asphyxiant anoxia (mice [11]): reduction in the time taken for convulsions and death to occur following asphyxiant anoxia
- motor recovery after hypoxic aggression (mice [12]): improvement in the motor recovery after hypoxic aggression
- hypothermia induced by oxotremorine (mice [13]): antagonism of the hypothermia induced by apomorphine, reserpine and oxotremorine
- trembling caused by oxotremorine (mice [13]): antagonism of the trembling caused by oxotremorine
- overall action on the CNS (CNS): antidepressant, stimulant and arousing properties
- excitation in mice (mice [14]): excitation with hyperreactivity
- stereotype movements in mice (mice [14]): late appearance of stereotypies
- hypothermia induced by reserpine (mice [15]): antagonism of the hypothermia induced by apomorphine, reserpine
- ptosis induced by reserpine (mice [15]): antagonism of the ptosis induced by reserpine
- motor activity after habituation to the enclosure (mice [16]): resumption in the motor activity after habituation to the enclosure
- lethal effects of electric shock (mice [17]): aggravation of the lethal effects of electric shock
- number of punished passes in the 4 plate test (mice [17]; mice): increase in the number of punished passes

Compound: CCCC(C(=O)OCCN(CC)CC)(c1ccccc1)c1ccccc1 [Proadifen, reference compound]
- spontaneous motility (male mice [18]): induces hypomotility
- righting behaviour and stereotypies induced by apomorphine (male mice [19]; i.p., apomorphine 16 mg/kg s.c.): Neither proadifen, nor CRL 41 152, nor their combination modify the righting behaviour
- body temperature, used alone (male mice [19]; proadifen 75 mg/kg i.p.): important hypothermic effect
- hypothermia induced by apomorphine (male mice [19]; proadifen 75 mg/kg i.p., apomorphine 16 mg/kg s.c.): does not modify the hypothermia induced by apomorphine
